For one experiment, the system named is Ph7GTb. Nature of the experiment: Glycosyl transferase activity of Ph7GTb cDNA recombinant protein. It counts as biochemical, petunia (Petunia hybrida). The note with it: crude extract, UDP-glucose, HPLC, as in Example 1. On the procedure:
(§1) To 50 μl of the crude enzyme solution were added 0.1 M Tris-HCl, pH 8.0, and 150 μl of 0.05% 2-ME, and then incubated at 30° C. for 10 minutes. Then 5 μl of 4.66 mM aureusidin and 50 μl of 5 mM UDP-glucose were added thereto, and was allowed to react at 30° C. for 1 hour. After the reaction was stopped by adding 200 μl of 90% acetonitrile containing 5% trifluoroacetic acid (TFA), it was centrifuged at 15,000 rpm and 4° C. for 3 minutes. The supernatant thus obtained was filtered (pore size 0.45 μm, 4 mm Millex-LH, Millipore) to remove insoluble substances. The filtrate was analyzed by high performance liquid chromatography.
(§2) The analytical condition was as follows: The column used was Asahipak-ODP-50 (4.6 mm φ×250 mm, Showa Denko). The mobile phase comprised water containing 0.1% TFA as solution A and 90% CH3CN containing 0.1% TFA as solution B. After a linear gradient from 20% solution B to 100% solution B for 20 minutes, 100% solution B was retained for 5 minutes. The flow rate was 0.6 ml/min. Detection used A380 nm, and an absorption spectrum at 250-400 nm using Shimadzu PDA detector SPD-M6A.
(§3) The transformants obtained in Example 8 were cultured, extracted and the enzymatic activity was measured as in Example 1. The enzymatic activity was measured using aureusidin as the substrate. […]

The next experiment deals with AmGT1. Nature of the experiment: Glycosyl transferase activity of the AmGT1 cDNA recombinant protein. It counts as biochemical, snapdragons (Antirrhinum majus). The note with it: crude extract, UDP-glucose, HPLC, as in Example 1. On the procedure: as §1, §2
The transformant obtained in Example 4 was cultured, extracted and the enzymatic activity was measured as in Example 1.

The subject of experiment [1] is product of the pS.b UFGT1 gene. Put plainly: Glycosyl transferase activity of pS.b UFGT1 gene product (crude E. coli extract, UDP-glucose, HPLC). In kind it is biochemical, Scutellaria baicalensis. The settings on record: crude enzyme solution, 30° C., HPLC detection of glycosides. On the procedure:
The activity of the pS.b UFGT1 gene derived from Scutellaria baicalensis of transferring a glycosyl group to aurones was determined using an expression vector pESBGT-1 in E. coli prepared by the following method.
The PCR product was digested with NdeI and BamHI, and then was ligated to the NdeI- and BamHI-digested pET-3a vector (Stratagene) to construct pESBGT-1 (FIG. 1). Using each of pESBGT-1 and pET-3a vector, it was transformed into Epicurian Coli BL21 (DE3) (Stratagene). The transformants were incubated overnight at 37° C. in 3 ml of a LB medium containing 50 μg/ml of ampicillin. The preculture (500 μl) was added to 50 ml of a LB medium containing 50 μg/ml of ampicillin, and cultured until A600 reached 0.6-1.0. Then isopropyl-β-D-thiogalactopyranoside (IPTG) was added thereto to a final concentration of 0.5 mM, which was cultured at 28° C. for 4 hours and centrifuged (5000 rpm, 10 minutes, 4° C.) to collect the cells.
The pellets were suspended in 5 ml of the buffer (10 mM sodium phosphate, pH 6.5, 1 mM β-mercaptoethanol (2-ME)). After the E. coli cells were disrupted by a sonicator, it was centrifuged (15,000 rpm, 5 minutes, […]), and the supernatant obtained was used as a crude enzyme solution for the next enzyme reaction.
In addition to aureusidin, the enzymatic activity was determined using naringenin or luteolin as the substrate.
To 50 μl of the crude enzyme solution were added 0.1 M Tris-HCl, pH 8.0, and 150 μl of 0.05% 2-ME, and then incubated at 30° C. for 10 minutes. Then 5 μl of 4.66 mM aureusidin and 50 μl of 5 mM UDP-glucose were added thereto, and was allowed to react at 30° C. for 1 hour. […] The filtrate was analyzed by high performance liquid chromatography. […]
To 20 μl of the crude enzyme solution were added 25 μl of 0.1 M citric acid-phosphate buffer, pH 6.5, 5 μl each of 5 μM substrate, and 25 μl of 5 mM UDP-glucose in a total volume of 250 μl, and then incubated at 30° C. for 30 minutes. […] The filtrate was analyzed by high performance liquid chromatography. […]

A further experiment has as its system Ph7GTa. Put plainly: Glycosyl transferase activity of Ph7GTa cDNA recombinant protein. In kind it is biochemical, petunia (Petunia hybrida). The note with it: crude extract, UDP-glucose, HPLC, as in Example 1. On the procedure:
as §1, §2, §3

Experiment [2] has as its system product of the pS.b UFGT1 gene. The note with it: substrate baicalein; cited from earlier work.
Experiment [3] deals with T1, flavonoid-3-glycosyl transferase derived from gentians (Gentiana triflora, UniProt Q96493).
T1 construct: host or cells: E. coli
T1 sequence (Q96493 1-453): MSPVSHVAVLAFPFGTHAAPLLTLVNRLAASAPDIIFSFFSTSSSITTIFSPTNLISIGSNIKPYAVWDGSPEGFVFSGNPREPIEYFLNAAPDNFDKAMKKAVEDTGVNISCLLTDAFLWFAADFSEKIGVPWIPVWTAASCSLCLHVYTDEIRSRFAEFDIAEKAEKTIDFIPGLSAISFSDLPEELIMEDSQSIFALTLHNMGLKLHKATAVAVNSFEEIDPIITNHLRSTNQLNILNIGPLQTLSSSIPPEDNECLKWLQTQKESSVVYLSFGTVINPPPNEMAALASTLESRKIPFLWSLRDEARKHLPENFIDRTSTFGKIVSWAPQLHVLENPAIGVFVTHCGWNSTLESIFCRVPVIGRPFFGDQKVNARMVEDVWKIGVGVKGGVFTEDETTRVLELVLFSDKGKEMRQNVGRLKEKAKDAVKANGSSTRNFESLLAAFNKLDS
The settings on record: substance used as substrate; enzyme expressed in E coli; cited from earlier work.

For experiment [4], the target named is T2, flavonoid-3-glycosyl transferase derived from grapes (Vitis vinifera, UniProt P51094).
T2 construct: host or cells: E. coli
T2 sequence (P51094 1-456): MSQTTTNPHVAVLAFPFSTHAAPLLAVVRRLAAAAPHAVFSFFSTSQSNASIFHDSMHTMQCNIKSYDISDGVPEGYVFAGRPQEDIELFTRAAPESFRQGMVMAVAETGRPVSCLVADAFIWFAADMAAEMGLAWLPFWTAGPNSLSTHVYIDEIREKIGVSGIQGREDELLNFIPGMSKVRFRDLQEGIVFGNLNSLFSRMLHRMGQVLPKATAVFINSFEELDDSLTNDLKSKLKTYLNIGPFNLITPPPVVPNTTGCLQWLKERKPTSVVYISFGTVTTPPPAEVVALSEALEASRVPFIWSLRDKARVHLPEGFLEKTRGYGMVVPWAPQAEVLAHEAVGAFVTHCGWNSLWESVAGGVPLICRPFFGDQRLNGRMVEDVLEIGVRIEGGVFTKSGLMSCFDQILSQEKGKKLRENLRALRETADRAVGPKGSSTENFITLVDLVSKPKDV
The note with it: substance used as substrate; activity determined in E. coli; cited from earlier work.

Results on ten compounds are retold here after US6770747B1, “Genes encoding protein having activity of transferring sugar onto aurone” (Suntory Limited, priority 1999, dated 2004).

As usually defined, the Km is the substrate concentration at which the rate is half of its maximum.

Entries after “also recorded” stand apart in the source; their conditions may differ.

Consider `O=C1/C(=C/c2ccc(O)c(O)c2)Oc2cc(O)cc(O)c21` [aureusidin], for which the “glycosilation of the substrate by Ph7GTb” value in the experiment on Ph7GTb is listed as “activity of glycosilating”. The “glycosyl transfer to the substrate by AmGT1” value in the experiment on AmGT1 was “can transfer a glycosyl group to the positions 6 and 4”. In addition, the “glycosilation of the substrate by the pS.b UFGT1 product” value in experiment [1] is listed as “can glycosilate”. Further, the “glycosilation of the substrate by Ph7GTa” value in the experiment on Ph7GTa is listed as “activity of glycosilating”. As for `O=c1cc(-c2ccccc2)oc2cc(O)c(O)c(O)c12` [baicalein], the “portion detected as 7 glycoside after the reaction is complete” value in experiment [2] is recorded as around 100%. For the compound `O=c1c(O)c(-c2ccc(O)cc2)oc2cc(O)cc(O)c12` [kaempferol], the “glycosyl transferase activity relative to a 100% activity to delphinidins” value in experiment [3] is reported as 7.0%.

For `O=c1cc(-c2ccc(O)c(O)c2)oc2cc(O)cc(O)c12` [luteolin], the “glycosilation of the substrate by the pS.b UFGT1 product” value in experiment [1] is given as “can glycosilate”. Regarding `O=c1c(O)c(-c2cc(O)c(O)c(O)c2)oc2cc(O)cc(O)c12` [myricetin], the “glycosyl transferase activity relative to a 100% activity to delphinidins” value in experiment [3] is 4.4%. As for `O=C1C[C@@H](c2ccc(O)cc2)Oc2cc(O)cc(O)c21` [naringenin], the “glycosilation of the substrate by the pS.b UFGT1 product” value in experiment [1] is listed as “very little effect; also recorded: no reaction occurred”. Take `O=c1c(O)c(-c2ccc(O)c(O)c2)oc2cc(O)cc(O)c12` [quercetin]: in experiment [4], the Km is 15 µM and the Vmax is 18.9 nkatals/mg. Besides, in experiment [3], the “glycosyl transferase activity relative to a 100% activity to delphinidins” value was 6.5%. As to cyanidins, in experiment [4], the Michaelis-Menten constant (Km) is 30 µM and the Vmax is recorded as 905 nkatals/mg. Besides, the “glycosyl transferase activity relative to a 100% activity to delphinidins” value in experiment [3] is given as 61%. For delphinidins, the “glycosyl transferase activity relative to a 100% activity to delphinidins” value in experiment [3] is 100%.

For pelargonidins, in experiment [3], the “glycosyl transferase activity relative to a 100% activity to delphinidins” value was 38%.
